Legend:
B-Raf V600E = B-Raf V600E (Homo sapiens, UniProt P15056, V600E); experiment: Kinase activity assay, B-Raf V600E; assay type: biochemical; details: read-out: activity toward kinase B-Raf V600E, IC50
B-Raf = B-Raf (Homo sapiens, UniProt P15056); experiment: Kinase activity assay, B-Raf; assay type: biochemical; details: read-out: activity toward kinase B-Raf, IC50
Kit = Kit (Homo sapiens, UniProt P10721); experiment: Kinase activity assay, Kit
Src = Src (Homo sapiens, UniProt P12931); experiment: Kinase activity assay, Src
Src, sequence (P12931 whole entry): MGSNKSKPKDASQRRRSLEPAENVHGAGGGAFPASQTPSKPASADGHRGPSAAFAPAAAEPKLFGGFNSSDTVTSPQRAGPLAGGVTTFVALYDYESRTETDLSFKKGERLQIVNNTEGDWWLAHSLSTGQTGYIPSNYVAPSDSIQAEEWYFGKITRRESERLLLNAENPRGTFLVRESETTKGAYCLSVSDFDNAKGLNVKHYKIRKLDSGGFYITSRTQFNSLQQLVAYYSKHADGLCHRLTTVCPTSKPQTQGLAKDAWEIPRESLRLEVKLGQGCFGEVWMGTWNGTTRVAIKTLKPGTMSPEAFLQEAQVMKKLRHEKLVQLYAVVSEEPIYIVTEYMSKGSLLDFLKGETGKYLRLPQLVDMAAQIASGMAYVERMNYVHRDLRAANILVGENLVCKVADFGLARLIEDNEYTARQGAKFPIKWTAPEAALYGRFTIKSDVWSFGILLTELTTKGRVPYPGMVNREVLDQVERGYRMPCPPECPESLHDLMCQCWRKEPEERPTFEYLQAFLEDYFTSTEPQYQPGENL

C-Raf = C-Raf (Homo sapiens, UniProt P04049); experiment: Kinase activity assay, C-Raf
C-Raf, sequence (P04049 whole entry): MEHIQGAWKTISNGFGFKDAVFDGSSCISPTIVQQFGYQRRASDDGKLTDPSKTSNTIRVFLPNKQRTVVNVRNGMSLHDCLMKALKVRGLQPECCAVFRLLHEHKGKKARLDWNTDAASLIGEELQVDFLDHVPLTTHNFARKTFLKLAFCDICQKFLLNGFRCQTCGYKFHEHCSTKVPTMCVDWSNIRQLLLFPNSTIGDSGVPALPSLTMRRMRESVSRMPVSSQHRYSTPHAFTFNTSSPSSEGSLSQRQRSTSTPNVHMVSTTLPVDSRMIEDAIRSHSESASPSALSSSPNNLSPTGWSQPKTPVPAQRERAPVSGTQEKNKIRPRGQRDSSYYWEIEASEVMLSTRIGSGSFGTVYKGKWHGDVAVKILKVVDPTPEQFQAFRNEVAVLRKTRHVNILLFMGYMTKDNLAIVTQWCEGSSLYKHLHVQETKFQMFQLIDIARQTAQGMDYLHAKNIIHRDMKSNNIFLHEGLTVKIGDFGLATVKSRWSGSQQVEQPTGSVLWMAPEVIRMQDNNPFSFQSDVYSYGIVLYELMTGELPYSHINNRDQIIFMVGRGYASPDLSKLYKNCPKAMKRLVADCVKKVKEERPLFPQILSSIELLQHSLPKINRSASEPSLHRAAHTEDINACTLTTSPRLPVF

TEC = molecular target: T1, TEC (Homo sapiens, UniProt P42680); experiment: Kinase activity assay, TEC
T1 sequence (P42680 1-631): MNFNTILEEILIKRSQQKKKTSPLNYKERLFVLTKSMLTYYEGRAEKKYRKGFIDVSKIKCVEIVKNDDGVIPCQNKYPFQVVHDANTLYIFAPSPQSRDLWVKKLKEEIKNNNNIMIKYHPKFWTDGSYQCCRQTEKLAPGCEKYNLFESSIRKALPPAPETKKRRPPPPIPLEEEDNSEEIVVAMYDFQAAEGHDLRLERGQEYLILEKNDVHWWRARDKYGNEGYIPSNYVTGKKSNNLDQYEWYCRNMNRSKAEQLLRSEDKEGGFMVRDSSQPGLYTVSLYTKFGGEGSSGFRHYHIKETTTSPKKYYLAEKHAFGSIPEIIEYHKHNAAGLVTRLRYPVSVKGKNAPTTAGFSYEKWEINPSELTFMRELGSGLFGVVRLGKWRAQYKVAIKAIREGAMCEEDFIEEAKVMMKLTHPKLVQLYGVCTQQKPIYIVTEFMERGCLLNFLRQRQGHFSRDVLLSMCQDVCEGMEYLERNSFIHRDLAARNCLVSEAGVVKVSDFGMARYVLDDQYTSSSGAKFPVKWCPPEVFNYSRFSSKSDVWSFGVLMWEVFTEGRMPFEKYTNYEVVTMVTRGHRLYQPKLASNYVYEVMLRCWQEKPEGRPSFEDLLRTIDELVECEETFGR

Fms = Fms (Homo sapiens, UniProt P07333); experiment: Kinase activity assay, Fms
Kdr = Kdr (Homo sapiens, UniProt P35968); experiment: Kinase activity assay, Kdr
Kdr, sequence (P35968 20-1356): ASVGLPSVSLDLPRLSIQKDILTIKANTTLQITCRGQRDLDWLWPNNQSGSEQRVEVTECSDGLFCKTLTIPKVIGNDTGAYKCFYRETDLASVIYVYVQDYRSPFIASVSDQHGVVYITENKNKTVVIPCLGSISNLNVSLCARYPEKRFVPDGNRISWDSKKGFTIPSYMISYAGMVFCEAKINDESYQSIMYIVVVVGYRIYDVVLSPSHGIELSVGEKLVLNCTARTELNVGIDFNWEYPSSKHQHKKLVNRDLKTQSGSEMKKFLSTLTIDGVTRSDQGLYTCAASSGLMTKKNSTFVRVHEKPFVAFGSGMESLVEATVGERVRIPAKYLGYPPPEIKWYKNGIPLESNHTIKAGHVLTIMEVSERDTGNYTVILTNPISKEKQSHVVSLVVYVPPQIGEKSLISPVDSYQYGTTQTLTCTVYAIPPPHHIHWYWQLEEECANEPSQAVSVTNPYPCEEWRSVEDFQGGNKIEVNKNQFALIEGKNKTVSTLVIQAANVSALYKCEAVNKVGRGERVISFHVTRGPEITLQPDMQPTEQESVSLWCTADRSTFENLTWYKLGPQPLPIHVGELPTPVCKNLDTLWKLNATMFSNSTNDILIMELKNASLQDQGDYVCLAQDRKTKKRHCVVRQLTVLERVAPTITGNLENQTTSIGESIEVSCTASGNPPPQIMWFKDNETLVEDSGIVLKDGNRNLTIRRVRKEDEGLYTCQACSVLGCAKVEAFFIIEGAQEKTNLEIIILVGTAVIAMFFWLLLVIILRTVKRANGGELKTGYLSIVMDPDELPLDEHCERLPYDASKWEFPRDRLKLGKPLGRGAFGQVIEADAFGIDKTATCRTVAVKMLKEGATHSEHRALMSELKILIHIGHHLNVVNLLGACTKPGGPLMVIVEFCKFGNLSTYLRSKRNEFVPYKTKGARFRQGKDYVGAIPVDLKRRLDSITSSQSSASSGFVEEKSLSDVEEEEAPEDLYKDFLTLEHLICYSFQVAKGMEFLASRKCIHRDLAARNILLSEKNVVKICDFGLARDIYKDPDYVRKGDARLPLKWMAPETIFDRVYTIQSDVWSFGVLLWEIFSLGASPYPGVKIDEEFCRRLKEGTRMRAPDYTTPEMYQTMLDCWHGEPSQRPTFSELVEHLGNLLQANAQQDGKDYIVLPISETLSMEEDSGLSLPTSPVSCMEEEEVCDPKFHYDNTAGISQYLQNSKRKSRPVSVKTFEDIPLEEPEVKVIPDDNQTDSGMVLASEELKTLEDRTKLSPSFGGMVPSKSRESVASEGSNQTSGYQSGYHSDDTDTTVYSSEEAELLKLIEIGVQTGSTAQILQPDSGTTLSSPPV

MAP4K4 = MAP4K4 (Homo sapiens, UniProt O95819); experiment: Kinase activity assay, MAP4K4

B-Raf V600E, sequence (P15056 whole entry V600E): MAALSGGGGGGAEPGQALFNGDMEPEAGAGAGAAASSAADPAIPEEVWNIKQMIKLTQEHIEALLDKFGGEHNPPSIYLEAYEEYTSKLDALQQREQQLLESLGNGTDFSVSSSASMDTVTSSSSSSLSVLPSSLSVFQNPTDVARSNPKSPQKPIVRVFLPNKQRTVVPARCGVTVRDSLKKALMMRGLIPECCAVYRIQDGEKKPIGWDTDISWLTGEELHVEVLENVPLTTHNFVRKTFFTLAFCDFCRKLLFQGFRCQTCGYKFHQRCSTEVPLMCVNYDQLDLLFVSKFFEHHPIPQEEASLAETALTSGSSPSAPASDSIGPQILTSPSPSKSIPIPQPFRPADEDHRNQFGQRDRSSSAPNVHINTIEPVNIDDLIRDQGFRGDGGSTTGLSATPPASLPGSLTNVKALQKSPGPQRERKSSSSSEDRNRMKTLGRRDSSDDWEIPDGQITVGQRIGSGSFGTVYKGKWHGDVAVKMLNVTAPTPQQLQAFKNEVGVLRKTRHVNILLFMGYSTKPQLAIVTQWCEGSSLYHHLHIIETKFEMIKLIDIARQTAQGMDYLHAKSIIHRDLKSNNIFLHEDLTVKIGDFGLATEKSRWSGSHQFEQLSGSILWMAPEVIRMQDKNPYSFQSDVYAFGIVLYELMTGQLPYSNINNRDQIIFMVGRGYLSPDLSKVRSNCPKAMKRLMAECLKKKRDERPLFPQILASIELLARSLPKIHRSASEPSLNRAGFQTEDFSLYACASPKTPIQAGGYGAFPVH
Kit, sequence (P10721 26-976): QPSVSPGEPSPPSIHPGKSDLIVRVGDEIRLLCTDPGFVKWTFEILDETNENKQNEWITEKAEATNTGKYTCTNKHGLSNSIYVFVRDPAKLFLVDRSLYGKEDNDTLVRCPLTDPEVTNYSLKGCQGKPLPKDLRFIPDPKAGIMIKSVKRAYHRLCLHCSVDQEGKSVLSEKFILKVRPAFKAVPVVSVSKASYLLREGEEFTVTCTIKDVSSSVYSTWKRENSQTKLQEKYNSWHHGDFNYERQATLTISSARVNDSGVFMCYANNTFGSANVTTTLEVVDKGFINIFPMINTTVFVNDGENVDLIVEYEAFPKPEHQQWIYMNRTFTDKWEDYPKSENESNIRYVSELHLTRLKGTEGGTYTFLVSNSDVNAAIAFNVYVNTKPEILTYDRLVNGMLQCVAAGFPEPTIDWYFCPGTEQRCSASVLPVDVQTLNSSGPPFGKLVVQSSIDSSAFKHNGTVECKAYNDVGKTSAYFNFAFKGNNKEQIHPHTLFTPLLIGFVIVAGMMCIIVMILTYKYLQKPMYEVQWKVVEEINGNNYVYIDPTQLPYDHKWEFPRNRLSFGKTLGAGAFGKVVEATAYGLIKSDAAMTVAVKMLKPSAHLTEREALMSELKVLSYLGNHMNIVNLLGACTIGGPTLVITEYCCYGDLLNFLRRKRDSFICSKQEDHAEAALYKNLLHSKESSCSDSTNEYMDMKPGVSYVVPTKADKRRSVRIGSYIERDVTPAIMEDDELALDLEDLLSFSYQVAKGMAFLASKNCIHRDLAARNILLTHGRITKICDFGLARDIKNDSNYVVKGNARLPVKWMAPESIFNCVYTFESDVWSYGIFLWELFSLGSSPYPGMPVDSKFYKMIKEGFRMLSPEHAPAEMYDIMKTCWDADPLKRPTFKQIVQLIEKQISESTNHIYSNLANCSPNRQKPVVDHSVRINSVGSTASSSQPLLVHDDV
B-Raf, sequence (P15056 whole entry): as the sequence (P15056 whole entry V600E) above, with E600V counted along it

SMILES	IC50 (B-Raf V600E) [µM]	IC50 (B-Raf) [µM]	IC50 (Kit) [µM]	IC50 (Src) [µM]	IC50 (C-Raf) [µM]	IC50 (TEC) [µM]	IC50 (Fms) [µM]	IC50 (Kdr) [µM]	IC50 (MAP4K4) [µM]
COc1ccnc2[nH]cc(C(=O)c3c(F)ccc(NS(=O)(=O)CC(C)C)c3F)c12 [P-2306, 2-Methyl-propane-1-sulfonic acid [2,4-difluoro-3-(4-methoxy-1H-pyrrolo[2,3-b]pyridine-3-carbonyl)-phenyl]-amide]	≤ 10	≤ 10	≤ 10	≤ 10	≤ 10	≤ 10	–	–	–
Cn1cc(-c2cnc3[nH]cc(C(=O)c4cccc(NS(=O)(=O)c5ccc(OC(F)(F)F)cc5)c4)c3c2)cn1 [P-2132, N-{3-[5-(1-Methyl-1H-pyrazol-4-yl)-1H-pyrrolo[2,3-b]pyridine-3-carbonyl]-phenyl}-4-trifluoromethoxy-benzenesulfonamide]	≤ 10	–	≤ 10	–	–	≤ 10	≤ 10	≤ 10	–
COc1ccnc2[nH]cc(C(=O)c3c(F)ccc(NS(=O)(=O)c4ccc(F)cc4)c3F)c12 [P-2027, N-[2,4-Difluoro-3-(4-methoxy-1H-pyrrolo[2,3-b]pyridine-3-carbonyl)-phenyl]-4-fluoro-benzenesulfonamide]	≤ 10	≤ 10	≤ 10	≤ 10	≤ 10	≤ 10	–	≤ 10	–
CCCS(=O)(=O)Nc1ccc(F)c(C(=O)c2c[nH]c3ncc(C(=O)OCC)cc23)c1F [P-2207, 3-[2,6-Difluoro-3-(propane-1-sulfonylamino)-benzoyl]-1H-pyrrolo[2,3-b]pyridine-5-carboxylic acid ethyl ester]	≤ 10	≤ 10	≤ 10	–	–	≤ 10	≤ 10	≤ 10	–
O=C(c1c(F)ccc(NS(=O)(=O)c2cccnc2)c1F)c1c[nH]c2ncc(Cl)cc12 [P-2071, Pyridine-3-sulfonic acid [3-(5-chloro-1H-pyrrolo[2,3-b]pyridine-3-carbonyl)-2,4-difluoro-phenyl]-amide]	–	–	≤ 10	≤ 10	–	≤ 10	–	–	≤ 10
Cn1cc(-c2cnc3[nH]cc(C(=O)c4cccc(NS(=O)(=O)c5ccc(C(F)(F)F)cc5)c4)c3c2)cn1 [P-2135, N-{3-[5-(1-Methyl-1H-pyrazol-4-yl)-1H-pyrrolo[2,3-b]pyridine-3-carbonyl]-phenyl}-4-trifluoromethyl-benzenesulfonamide]	≤ 10	–	≤ 10	–	–	≤ 10	≤ 10	≤ 10	–
CCCS(=O)(=O)Nc1ccc(F)c(C(=O)c2c[nH]c3ncc(-c4ccc(O)cc4)cc23)c1F [P-2198, Propane-1-sulfonic acid {2,4-difluoro-3-[5-(4-hydroxy-phenyl)-1H-pyrrolo[2,3-b]pyridine-3-carbonyl]-phenyl}-amide]	≤ 10	≤ 10	–	–	–	≤ 10	≤ 10	–	–
Cc1cnc2[nH]cc(C(=O)c3c(F)ccc(NS(=O)(=O)c4ccccn4)c3F)c2c1 [P-2070, Pyridine-2-sulfonic acid [2,4-difluoro-3-(5-methyl-1H-pyrrolo[2,3-b]pyridine-3-carbonyl)-phenyl]-amide]	≤ 10	≤ 10	–	≤ 10	≤ 10	≤ 10	–	≤ 10	≤ 10
Cn1cc(-c2cnc3[nH]cc(C(=O)c4cccc(NS(=O)(=O)c5cccc(OC(F)(F)F)c5)c4)c3c2)cn1 [P-2133, N-{3-[5-(1-Methyl-1H-pyrazol-4-yl)-1H-pyrrolo[2,3-b]pyridine-3-carbonyl]-phenyl}-3-trifluoromethoxy-benzenesulfonamide]	≤ 10	–	≤ 10	–	–	≤ 10	≤ 10	≤ 10	–
O=C(c1cc(NS(=O)(=O)c2cccc(Cl)c2)ccc1F)c1c[nH]c2ncccc12 [P-2118, 3-Chloro-N-[4-fluoro-3-(1H-pyrrolo[2,3-b]pyridine-3-carbonyl)-phenyl]-benzenesulfonamide]	–	–	≤ 10	–	–	≤ 10	≤ 10	≤ 10	–
CCCS(=O)(=O)Nc1ccc(F)c(C(=O)c2c[nH]c3ncc(-c4ccccc4Cl)cc23)c1F [P-2212, Propane-1-sulfonic acid {3-[5-(2-chloro-phenyl)-1H-pyrrolo[2,3-b]pyridine-3-carbonyl]-2,4-difluoro-phenyl}-amide]	≤ 10	≤ 10	–	–	–	≤ 10	≤ 10	≤ 10	–
O=C(c1cc(NS(=O)(=O)c2cccc(Cl)c2)ccc1F)c1c[nH]c2ncc(Cl)cc12 [P-2111, 3-Chloro-N-[3-(5-chloro-1H-pyrrolo[2,3-b]pyridine-3-carbonyl)-4-fluoro-phenyl]-benzenesulfonamide]	≤ 10	–	≤ 10	–	–	≤ 10	≤ 10	≤ 10	–

Other lines, results leading:

IC50 (B-Raf V600E) [µM]	IC50 (B-Raf) [µM]	IC50 (Kit) [µM]	IC50 (Src) [µM]	IC50 (C-Raf) [µM]	IC50 (TEC) [µM]	IC50 (Fms) [µM]	IC50 (Kdr) [µM]	IC50 (MAP4K4) [µM]	SMILES
≤ 10	–	–	–	≤ 10	≤ 10	–	–	≤ 10	CCCS(=O)(=O)Nc1cccc(S(=O)(=O)c2c[nH]c3ncc(Cl)cc23)c1 [P-2467, Propane-1-sulfonic acid [3-(5-chloro-1H-pyrrolo[2,3-b]pyridine-3-sulfonyl)-phenyl]-amide]
≤ 10	≤ 10	≤ 10	≤ 10	≤ 10	≤ 10	–	≤ 10	–	N#Cc1cnc2[nH]cc(C(=O)c3c(F)ccc(NS(=O)(=O)C4CCCC4)c3F)c2c1 [P-2359, Cyclopentanesulfonic acid [3-(5-cyano-1H-pyrrolo[2,3-b]pyridine-3-carbonyl)-2,4-difluoro-phenyl]-amide]
≤ 10	≤ 10	–	≤ 10	≤ 10	≤ 10	–	≤ 10	≤ 10	Cc1cnc2[nH]cc(C(=O)c3c(F)ccc(NS(=O)(=O)N(C)C)c3F)c2c1 [P-2382, N,N-dimethylamino-sulfonic acid [2,4-difluoro-3-(5-methyl-1H-pyrrolo[2,3-b]pyridine-3-carbonyl)-phenyl]-amide]
≤ 10	≤ 10	≤ 10	≤ 10	≤ 10	≤ 10	–	≤ 10	–	O=C(c1c(F)ccc(NS(=O)(=O)C2CCCC2)c1F)c1c[nH]c2ncc(Cl)cc12 [P-2358, Cyclopentanesulfonic acid [3-(5-chloro-1H-pyrrolo[2,3-b]pyridine-3-carbonyl)-2,4-difluoro-phenyl]-amide]
–	–	≤ 10	–	–	≤ 10	≤ 10	–	–	O=C(c1cc(NS(=O)(=O)C2CCCCC2)ccc1F)c1c[nH]c2ncccc12 [P-2441, Cyclohexanesulfonic acid [4-fluoro-3-(1H-pyrrolo[2,3-b]pyridine-3-carbonyl)-phenyl]-amide]
≤ 10	–	–	≤ 10	≤ 10	≤ 10	–	≤ 10	≤ 10	CCC(C)S(=O)(=O)Nc1ccc(F)c(C(=O)c2c[nH]c3ncc(C)cc23)c1F (centres unmarked) [P-2312, Butane-2-sulfonic acid [2,4-difluoro-3-(5-methyl-1H-pyrrolo[2,3-b]pyridine-3-carbonyl)-phenyl]-amide]
≤ 10	≤ 10	–	≤ 10	≤ 10	≤ 10	–	≤ 10	–	COc1ccnc2[nH]cc(C(=O)c3c(F)ccc(NS(=O)(=O)N(C)C)c3F)c12 [P-2376, N,N-dimethylamino-sulfonic acid [2,4-difluoro-3-(4-methoxy-1H-pyrrolo[2,3-b]pyridine-3-carbonyl)-phenyl]-amide]
≤ 10	–	–	–	–	≤ 10	≤ 10	≤ 10	–	O=C(c1cc(NS(=O)(=O)C2CCCC2)ccc1F)c1c[nH]c2ncccc12 [P-2442, Cyclopentanesulfonic acid [4-fluoro-3-(1H-pyrrolo[2,3-b]pyridine-3-carbonyl)-phenyl]-amide]
≤ 10	≤ 10	≤ 10	≤ 10	≤ 10	≤ 10	–	–	–	COc1ccnc2[nH]cc(C(=O)c3c(F)ccc(NS(=O)(=O)C4CCCCC4)c3F)c12 [P-2361, Cyclohexanesulfonic acid [2,4-difluoro-3-(4-methoxy-1H-pyrrolo[2,3-b]pyridine-3-carbonyl)-phenyl]-amide]

Source: patent US20120122860A1, “SOLID FORMS OF SULFONAMIDES AND AMINO ACIDS” (Plexxikon, Inc., priority 2009, published 2012)
